# Like-named read-outs stand apart in the source and are kept apart here.
# Experiments:
# [1] = tested on: subcutaneous fat-derived stein cells; conditions: day 7 of differentiation
# Description: (§1) Onto a 96-well plate (manufactured by IWAKI), 2 μL of FBS-free DMEM containing 1.2% by weight (final concentration) of the defibered collagen component, 6 mg/mL (final concentration) fibrinogen, 3 U/mL (final concentration) thrombin, and 5×10^6 cells/mL of subcutaneous fat-derived stein cells was seeded and incubated for 15 minutes, 200 μL of DMEM culture medium was then added, and culture was performed for 48 hours.
# The three-dimensional tissue constructs obtained were each subjected to fat staining with Nile red, and Hoechst staining for staining nuclei. In the same manner as in Production Example 1, fluorescence intensity for fat staining (Nile red) relative to fluorescence intensity for nucleic staining (Hoechst) was calculated, and increase rates of fluorescence intensity with reference to that of the three-dimensional tissue constructs cultured in DMEM culture medium containing no ALK5 inhibitor were calculated (three samples were used for each conditions).
# [2] = tested on: subcutaneous fat-derived stein cells; conditions: for adipogenesis (fat staining with Nile red): FIG. 5
# Description: as §1
smiles,measurement,setting,value
"Cc1cccc(-c2n[nH]cc2-c2ccc3ncccc3n2)n1 [ALK5 inhibitor, 2-[3-(6-methyl-2-pyridinyl)-1H-pyrazol-4-yl]-1,5-naphthyridine]",increase in fluorescence intensity (Nile red relative to Hoechst),"[1]; 5 μM or more of the ALK5 inhibitor in DMEM with seven fatty acids each 50 μM, vs no ALK5 inhibitor, FIG. 4",≥ 3 fold
same,adipogenesis (fat staining with Nile red),"[1]; ALK5 inhibitor 1, 5 or 10 μM in DMEM with seven fatty acids each 50 μM, vs medium containing no ALK5 inhibitor, FIG. 3",had proceeded more
same,differentiation of fat-derived stein cells into mature adipocytes,[1]; addition of the ALK5 inhibitor to DMEM with seven fatty acids each 50 μM,promoted
same,adipogenesis (fat staining with Nile red),"[2]; ALK5 inhibitor 5 μM with seven fatty acids each in 50 IIM, day 3, day 7 and day 14 of differentiation",had proceeded
same,difference in increase rates of fluorescence intensity between day 7 and day 14 of culture,"[2]; ALK5 inhibitor 5 μM, FIG. 6",No large difference
same,adipogenesis (fat staining with Nile red),"[2]; ALK5 inhibitor 5 μM, day 7 of culture and day 14 of culture (in particular)",had more proceeded
same,increase in fluorescence intensity vs medium containing no ALK5 inhibitor,"[2]; ALK5 inhibitor 5 μM, day 7 of culture and day 14 of culture, FIG. 6",significant

# Reference: patent publication US20240117313A1, “METHOD FOR PRODUCING THREE-DIMENSIONAL TISSUE BODY AND METHOD FOR PROMOTING DIFFERENTIATION OF ADIPOSE-DERIVED STEM CELLS” (TOPPAN INC., priority 2021, published 2024)
